From patent US20100003217A1, “Compounds and Pharmaceutical Compositions for the Treatment of Viral Infections” (priority 2008, published 2010)

What was measured:
[1] = system: HCV genotype 1b replicon (GS4.1 cells); test: HCV replicon assay (NS4A ELISA); type: cell-based, hepatitis C virus; details: Hepatitis C virus, 72 h, 3 days
Experimental: The biological activity of Compound 1, diastereomer 1 and diastereomer 2 was measured by monitoring expression of the NS4A protein by enzyme-linked immunosorbent assay (ELISA) and by luciferase assay as described below:
The HCV replicon assay measures the ability of a test compound to inhibit HCV replication in cell culture after 3 days of treatment in a human hepatoma cell line (Huh-7) bearing the HCV genotype 1b replicon (GS4.1 cells). The inhibition of HCV replication was measured by quantification of viral NS4A protein using an enzyme-linked immunosorbent assay (ELISA). […] Additionally, the replicon contains the neomycin phosphotransferase gene under the control of the HCV promoter (Source: Dr. Christoph Seeger, Fox Chase Cancer Center, Philadelphia, Pa.).
The NS4A ELISA assay is summarized as follows. Ninety-six-well tissue culture plates were seeded with GS4.1 cells. Antiviral compound solutions were made up freshly in medium as 2×-concentrated stocks. Eight additional 3-fold drug dilutions were prepared from these stocks in medium for a total of 9 dilutions. At least four hours after GS4.1 cells were seeded, drug treatment was initiated by adding one volume of each 2× concentrated drug dilution to one volume of cells/medium in the tissue culture plates. Cells were then incubated for 3 days at 37° C./5% CO2.
The media/compound was then removed from the plates and cells were fixed with acetone:methanol, washed three times with a wash solution, and then blocked for 1 hour with 10% fetal bovine serum in a balanced salt solution. Cells were washed three times and incubated with an anti-hepatitis C NS4A monoclonal antibody (Virogen Corp.) for 2 hours at 37° C. […] The reaction was stopped with diluted sulfuric acid (Mallinckrodt Chemicals) and absorbance measured on a Victor^3V 1420 multilabel counter (Perkin Elmer). EC50 values were calculated from dose response curves from the resulting best-fit equations determined by Microsoft Excel and XLfit 4.1 software.

CYP3A4 = CYP3A4 (Homo sapiens, UniProt P08684); test: Effect of CYP3A4 inhibitors (ketoconazole, ritonavir) on metabolic stability in human liver microsomes; type: in vitro ADME; details: human microsomes 1 mg/mL, 60 min, 10 μM, NADPH
Experimental: Incubations were conducted in a final volume of 0.1 mL per incubation time point. […] Final solvent (DMSO or methanol) concentration was maintained at 0.2%. Reactions were initiated by the addition of an NADPH regenerating system (1.3 mM NADP^+, 3.3 mM glucose-6-phosphate, 0.4 U/ml glucose-6-phosphate dehydrogenase, and 3.3 mM MgCl2, final concentrations). Incubations with no inhibitor served as control. Reactions were terminated at 30 min (monkey) or 60 min (rat and human) by the addition of 0.2 mL of stop solution (acetonitrile). The samples were vortex-mixed for 30 sec and then centrifuged at 10,000×g for 10 min. The supernatant was dried using a Labconco CentriVap concentrator and the dry residue reconstituted in water, transferred to an HPLC glass vial and analyzed by HPLC-UV method 1 (described above).
Because Compound 1 is rapidly metabolized in monkey liver microsomes, incubation conditions were adjusted by reducing protein content to 0.5 mg/mL and incubation time to 30 min. Incubation conditions for rat and human were unchanged; protein was 1 mg/mL and incubation time was 60 min.

CYP2A6 = CYP2A6 (Homo sapiens, UniProt P11509); test: Incubation with human recombinant CYP450 supersomes, 2A6; type: in vitro ADME; details: CYP450 2A6 supersomes, 60 min, 10 μM, average of two experiments
Experimental: (§1) Supersomes—Incubations were conducted in a final volume of 0.1 mL reaction buffer (50-100 mM potassium phosphate, pH 7.4 or 100 mM Tris-HCL, pH 7.4) according to protocol provided with each CYP450 supersome. Each reaction contained […] of CYP450 supersome, 1.3 mM NADP^+, 3.3 mM glucose-6-phosphate, 0.4 U/mL glucose-6-phosphate dehydrogenase, 3.3 mM MgCl2 and 10 μM Compound 1. Following incubation for 60 min at 37° C., 100 μL of stop solution (acetonitrile:methanol; 1:1) was added and samples centrifuged for 10 min at 10,000×g. The supernatant was then dried and reconstituted in 10 mM potassium phosphate, pH 5, further transferred to an HPLC glass vial and analyzed by HPLC-UV (described above).

CYP2C19 = CYP2C19 (Homo sapiens, UniProt P33261); test: Incubation with human recombinant CYP450 supersomes, 2C19; type: in vitro ADME; details: CYP450 2C19 supersomes, 60 min, 10 μM, average of two experiments
Experimental: as §1

[2] = system: S282T HCV replicon (184R-D2 cells); test: microbe, parasite or virus in culture
Experimental: (§2) 1. […] Huh-7 cells were seeded into column 1 of each plate at a similar density.
(§3) 2. […] Eight additional 3-fold serial dilutions of each compound were prepared from the 2× stock in assay medium. Final drug concentrations ranged from 100 to 0.015 μM.
(§4) 3. […] This setup was run in duplicate in each 96-well plate.
(§5) 4. Cells were incubated with inhibitors for three days at 37° C./5% CO2.
(§6) 1. After three days of drug treatment, media was removed from the plates via gentle tapping and the cells were fixed to the plates with 100 μL/well of 1:1 acetone:methanol.
(§7) 2. After one minute of incubation at room temperature, plates were washed three times with 100 μL/well of ELISA wash solution and then blocked with 150 μL/well of 10% FBS-TNE.
(§8) 3. After a one hour incubation at room temperature, plates were washed three times with 100 μL/well of ELISA wash solution, and then 100 μL/well of mouse anti-hepatitis C […] mAb (1 mg/mL stock diluted 1:1,500 in 10% FBS-TNE) was added.
(§9) 4. Following 2 hours of incubation at 37° C., plates were washed three times with 100 μL/well of ELISA wash solution, and then 100 μL/well of HRP-goat anti-mouse antibody (diluted 1:4,000 in 10% FBS-TNE) was added.
(§10) 4. After a one hour incubation period at 37° C., each plate was washed three times with 100 μL/well of ELISA wash solution. Color development was then initiated with 100 μL/well of OPD solution.
(§11) 5. After a 30 minute incubation period in the dark at room temperature, reactions were stopped by adding 100 μL of 2NH2SO4 to each well.
(§12) 6. The absorbance was measured at 490 nm on a Victor^3 V 1420 multilabel counter (Perkin Elmer). The percent inhibition of HCV replicon replication was calculated for each drug using an average of the duplicate wells.

[3] = system: wild-type HCV replicon (GS4.1 cells); test: microbe, parasite or virus in culture
Experimental: as §2, §3, §4, §5, §6, §7, §8, §9, §10, §11, §12

Sequence of CYP3A4 (P08684 whole entry): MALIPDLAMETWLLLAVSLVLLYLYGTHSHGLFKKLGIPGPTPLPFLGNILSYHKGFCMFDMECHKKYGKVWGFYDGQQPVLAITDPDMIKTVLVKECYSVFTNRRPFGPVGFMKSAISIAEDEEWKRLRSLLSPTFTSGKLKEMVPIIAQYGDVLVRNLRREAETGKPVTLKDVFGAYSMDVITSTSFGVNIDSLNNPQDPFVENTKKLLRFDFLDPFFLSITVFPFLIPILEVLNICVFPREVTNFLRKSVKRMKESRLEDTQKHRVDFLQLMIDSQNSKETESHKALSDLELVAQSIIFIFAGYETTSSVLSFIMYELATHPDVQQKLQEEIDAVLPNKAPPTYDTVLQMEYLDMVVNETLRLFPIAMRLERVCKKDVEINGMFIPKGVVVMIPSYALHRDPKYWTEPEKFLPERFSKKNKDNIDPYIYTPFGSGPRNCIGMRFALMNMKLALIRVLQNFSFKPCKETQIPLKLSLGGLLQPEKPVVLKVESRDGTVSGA
Sequence of CYP2A6 (P11509 whole entry): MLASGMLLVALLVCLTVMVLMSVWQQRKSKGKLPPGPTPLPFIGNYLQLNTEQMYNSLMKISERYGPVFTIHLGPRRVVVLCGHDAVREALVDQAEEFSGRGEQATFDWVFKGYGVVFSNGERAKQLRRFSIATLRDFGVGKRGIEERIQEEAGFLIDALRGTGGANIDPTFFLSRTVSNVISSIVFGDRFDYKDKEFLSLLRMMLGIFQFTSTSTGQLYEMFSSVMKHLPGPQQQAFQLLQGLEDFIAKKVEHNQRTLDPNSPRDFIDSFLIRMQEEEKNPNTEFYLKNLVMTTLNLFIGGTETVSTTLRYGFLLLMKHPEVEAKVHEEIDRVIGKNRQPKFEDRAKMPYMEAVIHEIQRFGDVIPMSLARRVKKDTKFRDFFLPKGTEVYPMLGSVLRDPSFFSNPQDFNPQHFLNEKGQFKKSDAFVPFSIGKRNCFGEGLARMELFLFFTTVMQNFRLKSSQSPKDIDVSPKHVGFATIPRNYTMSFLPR
Sequence of CYP2C19 (P33261 whole entry): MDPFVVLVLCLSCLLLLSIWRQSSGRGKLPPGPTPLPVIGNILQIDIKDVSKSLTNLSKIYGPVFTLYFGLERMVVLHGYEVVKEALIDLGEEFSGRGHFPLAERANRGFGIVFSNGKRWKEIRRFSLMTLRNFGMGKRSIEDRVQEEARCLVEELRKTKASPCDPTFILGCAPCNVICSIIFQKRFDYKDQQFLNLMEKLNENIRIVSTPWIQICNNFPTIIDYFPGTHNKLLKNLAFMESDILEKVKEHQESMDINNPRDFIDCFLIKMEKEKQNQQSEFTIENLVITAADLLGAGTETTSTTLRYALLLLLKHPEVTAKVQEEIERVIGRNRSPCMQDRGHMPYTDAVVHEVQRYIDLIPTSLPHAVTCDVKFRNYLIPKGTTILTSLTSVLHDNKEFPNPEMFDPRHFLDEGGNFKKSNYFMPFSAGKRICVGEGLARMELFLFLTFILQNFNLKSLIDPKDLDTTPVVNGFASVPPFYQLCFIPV

Which EC50 [1] does the source give for CC(C)(CO)C(=O)SCCOP(=O)(NCc1ccccc1)OC[C@H]1O[C@@H](n2cnc3c(=O)[nH]c(N)nc32)[C@](C)(O)[C@@H]1O (mixture of isomers) [Compound 1, 3-hydroxy-2,2-dimethyl-thiopropionic acid S-(2-{[(2R,3R,4R,5R)-5-(2-amino-6-oxo-1,6-dihydro-purin-9-yl)-3,4-dihydroxy-4-methyl-tetrahydro-furan-2-ylmethoxy]-benzylamino-phosphoryloxy}-ethyl) ester] here?
The EC50 was 379 ± 83 nM.

What about the “% Residual Compound 1” value (CYP3A4; Ketoconazole 0.1 μM) of the same molecule?
Its value is 103%.

And the “% Residual Compound 1” value (CYP3A4; Ketoconazole 1 μM)?
The value was 117%.

What about the “% Residual Compound 1” value (CYP3A4; Ritonavir 0.1 μM) of the same molecule?
Its value is 92%.

What about the “% Residual Compound 1” value (CYP3A4; Ritonavir 1 μM) of the same molecule?
Its value is 117%.

And the “% Residual Compound 1” value (CYP3A4; inhibitor 0 μM)?
The value was 65%.

And the “% Residual Compound 1” value (CYP2A6)?
Its value is 105%.

What about the “% Residual Compound 1” value (CYP2C19) of the same molecule?
The value was 111%.

And the “Fold shift from wild-type” value ([2]; 184R-D2 (S282T), EC50 in resistant line divided by EC50 in wild-type cells)?
Its value is 130 fold.

And the EC50 ([2]; Hepatitis C virus)?
The EC50 was 39 ± 10 µM.

What about the “Fold shift from wild-type” value ([3]; GS4.1 (wild-type), EC50 reference) of the same molecule?
The value was 1 fold.

What about the EC50 ([3]; Hepatitis C virus) of the same molecule?
The EC50 was 300 nM.
